From ChEMBL document CHEMBL3272111, “Synthesis of 2-benzyloxy and 2-benzylthio analogues of primaquine as potential antimalarials” (1977)
Active and inactive are the calls of the source. The rule behind the calls is not given here.

How the values were obtained:
Plasmodium cynomolgi [1] = experiment: Antimalarial activity against Plasmodium cynomolgi infected in monkey assessed as relapses day at 1 mg/kg, po; type: functional
Plasmodium cynomolgi [2] = experiment: Antimalarial activity against Plasmodium cynomolgi infected in monkey assessed as relapses day at 0.5 mg/kg, po; type: functional
Plasmodium berghei [3] = experiment: Antimalarial activity against Plasmodium berghei infected in mouse at 640 mg/kg; type: functional, organism-based; design: dose 640 mg/kg
Plasmodium cynomolgi [4] = experiment: Antimalarial activity against Plasmodium cynomolgi infected in monkey assessed as curative activity without disease relapses until 90 days at 1 mg/kg, po by radical curative monkey test; type: functional, organism-based; design: dose 1 mg/kg
Plasmodium cynomolgi [5] = experiment: Antimalarial activity against Plasmodium cynomolgi infected in monkey assessed as curative activity without disease relapses until 90 days at 0.75 mg/kg, po by radical curative monkey test; type: functional, organism-based; design: dose 0.75 mg/kg
Plasmodium cynomolgi [6] = experiment: Antimalarial activity against Plasmodium cynomolgi infected in monkey assessed as curative activity without disease relapses until 90 days at 0.375 mg/kg, po by radical curative monkey test; type: functional, organism-based; design: dose 0.375 mg/kg
Plasmodium cynomolgi [7] = experiment: Antimalarial activity against Plasmodium cynomolgi infected in monkey assessed as relapses day at 0.375 mg/kg, po; type: functional
Plasmodium cynomolgi [8] = experiment: Antimalarial activity against Plasmodium cynomolgi infected in monkey assessed as relapses day at 10 mg/kg, po; type: functional
Plasmodium berghei [9] = experiment: Antimalarial activity against Plasmodium berghei infected in mouse at 320 to 640 mg/kg; type: functional, organism-based
Plasmodium cynomolgi [10] = experiment: Antimalarial activity against Plasmodium cynomolgi infected in monkey assessed as curative activity without disease relapses until 90 days at 1.5 mg/kg, po by radical curative monkey test; type: functional, organism-based; design: dose 1.5 mg/kg
Plasmodium cynomolgi [11] = experiment: Antimalarial activity against Plasmodium cynomolgi infected in monkey assessed as relapses day at 0.25 mg/kg, po; type: functional

| Compound | Time (Plasmodium cynomolgi [1]) [days] | Time (Plasmodium cynomolgi [2]) [days] | Activity (Plasmodium cynomolgi [4]) | other results |
| --- | --- | --- | --- | --- |
| COc1cc(NC(C)CCCN)c2nc(OCc3ccc(Cl)cc3)ccc2c1.O=C(O)/C=C\C(=O)O (stereo unspecified) | 9 | – | – | – |
| COc1cc(NC(C)CCCN)c2nc(OCc3ccc(Cl)cc3Cl)ccc2c1.O=C(O)/C=C\C(=O)O (stereo unspecified) | – | 8 | Active | Activity (Plasmodium berghei [3]): Active |
| COc1cc(NC(C)CCCN)c2ncccc2c1.O=P(O)(O)O.O=P(O)(O)O (stereo unspecified) [PRIMAQUINE PHOSPHATE] | – | 11 | – | Activity (Plasmodium cynomolgi [5]): Active; Activity (Plasmodium cynomolgi [6]): inactive; Time (Plasmodium cynomolgi [7]): 11 days |
| COc1cc(NC(C)CCCN)c2nc(SCc3ccccc3)ccc2c1.O=C(O)/C=C\C(=O)O (stereo unspecified) | 15 | 9 | – | – |
| COc1cc(NC(C)CCCN)c2nc(SCc3ccc(Cl)cc3)ccc2c1.O=C(O)/C=C\C(=O)O (stereo unspecified) | – | 7 | – | Time (Plasmodium cynomolgi [8]): 7 days; Activity (Plasmodium berghei [9]): Active |
| COc1cc(NC(C)CCCN)c2nc(OCc3ccccc3)ccc2c1 (stereo unspecified) | – | – | – | Activity (Plasmodium cynomolgi [10]): Active |
| COc1ccc(COc2ccc3cc(OC)cc(NC(C)CCCN)c3n2)cc1.O=C(O)/C=C\C(=O)O (stereo unspecified) | 7 | – | – | Time (Plasmodium cynomolgi [8]): 18 days |
| COc1cc(NC(C)CCCN)c2nc(OCc3ccc(F)cc3)ccc2c1.O=C(O)/C=C\C(=O)O (stereo unspecified) | – | 91 | Active | Time (Plasmodium cynomolgi [11]): 5 days; Activity (Plasmodium berghei [3]): Active |
| COc1cc(NC(C)CCCN)c2nc(OCc3cccc(C(F)(F)F)c3)ccc2c1.O=C(O)/C=C\C(=O)O (stereo unspecified) | 13 | 6 | Active | – |
| COc1cc(NC(C)CCCN)c2nc(OCc3ccc(C(F)(F)F)cc3)ccc2c1.O=C(O)/C=C\C(=O)O (stereo unspecified) | – | 5 | Active | Time (Plasmodium cynomolgi [11]): 9 days |
